PubChem BioAssay AID256 (DTP/NCI, 2004)
“And” between values parts separate entries of the source, which are not always exact repeats. Equal entries are not always repeated. Inconclusive results and toxic doses are left out. How the source made its calls: active means survival T/C of 150% or more; inactive means T/C below 125% in these data.

System: CD2F1 mice, L1210 leukemia ip, survival T/C
Assay: NCI In Vivo Anticancer Drug Screen. Data for tumor model L1210 Leukemia (intraperitoneal) in CD2F1 (CDF1) mice
Settings: higher = longer survival
In short: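 Mice carrying a transplanted tumor received test compound or vehicle alone. The value is the measurement in the treated group divided by that in the vehicle-treated control group.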

[1] = endpoint: mean survival time, dose: 50.0 mg/kg/injection, schedule: Q01DX009 (ip), vehicle: saline with Tween-80
[2] = endpoint: mean survival time, dose: 100.0 mg/kg/injection, schedule: Q01DX009 (ip), vehicle: saline with Tween-80
[3] = endpoint: mean survival time, dose: 200.0 mg/kg/injection, schedule: Q01DX009 (ip), vehicle: saline with Tween-80
[4] = endpoint: mean survival time, dose: 100.0 mg/kg/injection, schedule: Q04DX003 (ip), vehicle: saline with Tween-80
[5] = endpoint: mean survival time, dose: 200.0 mg/kg/injection, schedule: Q04DX003 (ip), vehicle: saline with Tween-80
[6] = endpoint: mean survival time, dose: 400.0 mg/kg/injection, schedule: Q04DX003 (ip), vehicle: saline with Tween-80
[7] = endpoint: mean survival time, dose: 100.0 mg/kg/injection, schedule: Q01DX001 (ip), vehicle: saline with Tween-80
[8] = endpoint: mean survival time, dose: 200.0 mg/kg/injection, schedule: Q01DX001 (ip), vehicle: saline with Tween-80
[9] = endpoint: mean survival time, dose: 6.25 mg/kg/injection, schedule: Q01DX009 (ip), vehicle: saline with Tween-80
[10] = endpoint: mean survival time, dose: 12.5 mg/kg/injection, schedule: Q01DX009 (ip), vehicle: saline with Tween-80
[11] = endpoint: mean survival time, dose: 400.0 mg/kg/injection, schedule: Q01DX009 (ip), vehicle: saline with Tween-80
[12] = endpoint: mean survival time, dose: 100.0 mg/kg/injection, schedule: Q04DX002 (ip), vehicle: saline with Tween-80
[13] = endpoint: mean survival time, dose: 200.0 mg/kg/injection, schedule: Q04DX002 (ip), vehicle: saline with Tween-80
[14] = endpoint: mean survival time, dose: 12.5 mg/kg/injection, schedule: Q04DX003 (ip), vehicle: saline
[15] = endpoint: mean survival time, dose: 25.0 mg/kg/injection, schedule: Q04DX003 (ip), vehicle: saline
[16] = endpoint: mean survival time, dose: 50.0 mg/kg/injection, schedule: Q04DX003 (ip), vehicle: saline
[17] = endpoint: mean survival time, dose: 25.0 mg/kg/injection, schedule: Q01DX009 (ip), vehicle: saline with Tween-80
[18] = endpoint: mean survival time, dose: 100.0 mg/kg/injection, schedule: Q04DX003 (ip), vehicle: saline

Measured: T/C

CC/C=C(/CC)C1CCCCC1C (stereo not drawn)
inactive: [1] 87 % of control | [2] 96 % of control | [3] 96 % of control

CC(=O)Nc1nc(C)c(CC/C=C/c2ccc([N+](=O)[O-])cc2)c(=O)[nH]1
inactive: [4] 94 % of control | [5] 97 % of control | [6] 90 % of control

COc1ccccc1-n1c(O)c(N=Nc2ccccc2)c(=O)n(-c2ccccc2OC)c1=S
inactive: [7] 105 % of control | [8] 102 % of control

COc1ccc2c(c1)c(C#N)cc[n+]2C
inactive: [9] 100 % of control | [10] 110 % of control | endpoint: mean survival time, dose: 12.5 mg/kg/injection, schedule: Q04DX003 (ip), vehicle: saline with Tween-80 100 % of control | endpoint: mean survival time, dose: 25.0 mg/kg/injection, schedule: Q04DX003 (ip), vehicle: saline with Tween-80 91 % of control

NC(=O)N/N=C\c1ccc(O)cn1
inactive: [2] 93 % of control | [3] 93 % of control | [11] 92 % of control

CC(C)C(=NO)C(C)C
inactive: [2] 98 % of control | [4] 101 % of control | [3] 93 % of control | [5] 93 % of control | [6] 91 % of control

CC(C)(C)C(=O)/C(O)=C\c1ccccc1
inactive: endpoint: mean survival time, dose: 100.0 mg/kg/injection, schedule: Q01DX001 (ip), vehicle: saline 105 % of control | endpoint: mean survival time, dose: 200.0 mg/kg/injection, schedule: Q01DX001 (ip), vehicle: saline 100 % of control | endpoint: mean survival time, dose: 400.0 mg/kg/injection, schedule: Q01DX001 (ip), vehicle: saline 98 % of control

O=C1CCCC1CC1CCCC1=O (stereo not drawn)
inactive: [2] 102 % of control | [3] 106 % of control | [11] 106 % of control

CCOC(=O)/C=C1\NC(=O)N(CCCN2C(=O)N/C(=C\C(=O)OCC)C2=O)C1=O
inactive: endpoint: mean survival time, dose: 3.13 mg/kg/injection, schedule: Q01DX009 (ip), vehicle: saline with Tween-80 95 % of control | [9] 98 % of control | [10] 95 % of control | [1] 92 % of control

O=c1oc(/C=C/c2ccccc2)nc2ccccc12
inactive: [12] 100 % of control | [13] 100 % of control | endpoint: mean survival time, dose: 400.0 mg/kg/injection, schedule: Q04DX002 (ip), vehicle: saline with Tween-80 103 % of control

CC[N+](C)(CC)Cc1cc(C(C)=O)c(C)o1
inactive: endpoint: mean survival time, dose: 6.25 mg/kg/injection, schedule: Q04DX002 (ip), vehicle: saline 98 % of control | endpoint: mean survival time, dose: 12.5 mg/kg/injection, schedule: Q04DX002 (ip), vehicle: saline 98 % of control | endpoint: mean survival time, dose: 25.0 mg/kg/injection, schedule: Q04DX002 (ip), vehicle: saline 102 % of control | endpoint: mean survival time, dose: 50.0 mg/kg/injection, schedule: Q04DX002 (ip), vehicle: saline 91 % of control | endpoint: median survival time, dose: 50.0 mg/kg/injection, schedule: Q04DX002 (ip), vehicle: saline 100 % of control

Brc1ccc(C[N+]23CCN(CC2)CC3)cc1
inactive: [14] 98 % of control and 111 % of control | [15] 93 % of control and 100 % of control | [16] 95 % of control and 103 % of control

CC(=O)NC1C(O)C(NC(C)=O)C(OC(C)=O)C(OC(C)=O)C1OC(C)=O (stereo not drawn)
inactive: [2] 95 % of control | [3] 103 % of control | [11] 103 % of control

Clc1cc(Cl)c(C[N+]23CN4CN(CN(C4)C2)C3)cc1Cl
inactive: [10] 104 % of control | [17] 98 % of control | [1] 92 % of control and 109 % of control | [2] 104 % of control and 112 % of control | [4] 106 % of control | [3] 108 % of control | [5] 104 % of control

CCCCCCCCCCCCCC#CC(=O)O
inactive: endpoint: mean survival time, dose: 3.12 mg/kg/injection, schedule: Q01DX009 (ip), vehicle: saline with Tween-80 101 % of control and 109 % of control | [9] 96 % of control and 98 % of control | [10] 91 % of control and 98 % of control | [17] 91 % of control and 98 % of control | [1] 91 % of control and 95 % of control | [2] 88 % of control

O=C(Nc1cc(Cl)ccc1Cl)c1ccc(Cl)cc1Cl
inactive: [1] 92 % of control | [2] 87 % of control | [4] 90 % of control | [3] 92 % of control | [5] 88 % of control

CC(=O)CC(C)(C)O
inactive: [2] 95 % of control | endpoint: mean survival time, dose: 100.0 mg/kg/injection, schedule: Q04DX003 (ip), vehicle: saline sonified 102 % of control | [3] 96 % of control | endpoint: mean survival time, dose: 200.0 mg/kg/injection, schedule: Q04DX003 (ip), vehicle: saline sonified 100 % of control | [11] 95 % of control | endpoint: mean survival time, dose: 400.0 mg/kg/injection, schedule: Q04DX003 (ip), vehicle: saline sonified 97 % of control

CC1=CC(=O)OC(C)(C)C1
inactive: endpoint: mean survival time, dose: 100.0 mg/kg/injection, schedule: Q01DX009 (ip), vehicle: saline 97 % of control | endpoint: mean survival time, dose: 200.0 mg/kg/injection, schedule: Q01DX009 (ip), vehicle: saline 96 % of control | endpoint: mean survival time, dose: 400.0 mg/kg/injection, schedule: Q01DX009 (ip), vehicle: saline 114 % of control

COC1OC2COC(c3ccccc3)OC2C(OS(C)(=O)=O)C1OS(C)(=O)=O (stereo not drawn)
inactive: [7] 103 % of control | [8] 105 % of control | endpoint: mean survival time, dose: 400.0 mg/kg/injection, schedule: Q01DX001 (ip), vehicle: saline with Tween-80 101 % of control

O=P(O)(O)OP(=O)(O)OCC1OC(n2cnc3c(=S)nc[nH]c32)C(O)C1O (stereo not drawn)
inactive: endpoint: mean survival time, dose: 200.0 mg/kg/injection, schedule: Q01DX009 (ip), vehicle: saline sonified 123 % of control | endpoint: mean survival time, dose: 400.0 mg/kg/injection, schedule: Q01DX009 (ip), vehicle: saline sonified 112 % of control

CC(CSc1ccccc1)NCCO (stereo not drawn)
inactive: [15] 95 % of control | [16] 94 % of control | [18] 100 % of control

CCN1CCC(CC)(CN2c3ccccc3Sc3ccc(Cl)cc32)C1 (stereo not drawn)
inactive: [18] 100 % of control | endpoint: mean survival time, dose: 200.0 mg/kg/injection, schedule: Q04DX003 (ip), vehicle: saline 96 % of control

Cc1nnc(C(N)=O)c(=O)[nH]1
inactive: endpoint: mean survival time, dose: 100.0 mg/kg/injection, schedule: Q01DX001 (ip), vehicle: Klucel (hydroxypropylcellulose) (HPC) 102 % of control | endpoint: mean survival time, dose: 200.0 mg/kg/injection, schedule: Q01DX001 (ip), vehicle: Klucel (hydroxypropylcellulose) (HPC) 98 % of control | endpoint: mean survival time, dose: 400.0 mg/kg/injection, schedule: Q01DX001 (ip), vehicle: Klucel (hydroxypropylcellulose) (HPC) 100 % of control

NC(N)=N/N=C/c1ccc(-c2ccccc2)cc1
inactive: endpoint: mean survival time, dose: 6.25 mg/kg/injection, schedule: Q01DX001 (ip), vehicle: saline with Tween-80 95 % of control | endpoint: mean survival time, dose: 12.5 mg/kg/injection, schedule: Q01DX001 (ip), vehicle: saline with Tween-80 109 % of control | endpoint: mean survival time, dose: 25.0 mg/kg/injection, schedule: Q01DX001 (ip), vehicle: saline with Tween-80 100 % of control

Oc1c(Cl)cc(Cl)cc1/C=N/NC(=S)Nc1cc(C(F)(F)F)cc(C(F)(F)F)c1
inactive: endpoint: mean survival time, dose: 6.25 mg/kg/injection, schedule: Q01DX009 (ip), vehicle: olive oil, sesame oil, peanut oil 102 % of control | endpoint: mean survival time, dose: 12.5 mg/kg/injection, schedule: Q01DX009 (ip), vehicle: olive oil, sesame oil, peanut oil 100 % of control | endpoint: mean survival time, dose: 25.0 mg/kg/injection, schedule: Q01DX009 (ip), vehicle: olive oil, sesame oil, peanut oil 100 % of control | endpoint: mean survival time, dose: 50.0 mg/kg/injection, schedule: Q01DX009 (ip), vehicle: olive oil, sesame oil, peanut oil 102 % of control | endpoint: mean survival time, dose: 100.0 mg/kg/injection, schedule: Q01DX009 (ip), vehicle: olive oil, sesame oil, peanut oil 102 % of control | endpoint: mean survival time, dose: 200.0 mg/kg/injection, schedule: Q01DX009 (ip), vehicle: olive oil, sesame oil, peanut oil 94 % of control

COc1ccccc1NC(=O)NCCN(C)c1ccccc1
inactive: [12] 88 % of control | [13] 88 % of control

NC(CCNCCc1ccccc1)CNCCc1ccccc1 (stereo not drawn)
inactive: endpoint: mean survival time, dose: 75.0 mg/kg/injection, schedule: Q01DX001 (ip), vehicle: saline 107 % of control | endpoint: mean survival time, dose: 150.0 mg/kg/injection, schedule: Q01DX001 (ip), vehicle: saline 92 % of control

c1ccc2c(CC[n+]3cccc(C4OCCO4)c3)c[nH]c2c1
inactive: endpoint: mean survival time, dose: 12.5 mg/kg/injection, schedule: Q01DX009 (ip), vehicle: saline 100 % of control | [14] 92 % of control | endpoint: mean survival time, dose: 25.0 mg/kg/injection, schedule: Q01DX009 (ip), vehicle: saline 105 % of control | [15] 96 % of control | endpoint: mean survival time, dose: 50.0 mg/kg/injection, schedule: Q01DX009 (ip), vehicle: saline 100 % of control | [16] 89 % of control
